{"source": "paper PMC7366343", "about": "(Journal of the American Chemical Society, 2019)", "origin": "cited, not measured here", "key": {"[1]": {"target": "hTDO (Homo sapiens, UniProt P48775)", "sequence (P48775 whole entry)": "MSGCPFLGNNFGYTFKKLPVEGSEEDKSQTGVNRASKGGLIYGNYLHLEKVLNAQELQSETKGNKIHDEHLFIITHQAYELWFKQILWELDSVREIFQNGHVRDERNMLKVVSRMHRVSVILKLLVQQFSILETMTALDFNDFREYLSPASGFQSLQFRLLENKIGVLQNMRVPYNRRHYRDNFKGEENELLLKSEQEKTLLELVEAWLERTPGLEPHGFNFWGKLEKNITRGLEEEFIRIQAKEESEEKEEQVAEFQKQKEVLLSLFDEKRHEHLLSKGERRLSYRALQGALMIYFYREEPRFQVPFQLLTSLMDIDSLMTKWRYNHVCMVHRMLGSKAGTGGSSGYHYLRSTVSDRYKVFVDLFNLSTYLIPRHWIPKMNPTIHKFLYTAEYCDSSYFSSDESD", "conditions": "read-out: reported IC50 for hTDO"}}, "data": [{"smiles": "O=C1CC(c2c[nH]c3ccc(F)cc23)C(=O)N1", "note": "(centres unmarked) [IPD, 3-(5-Fluoro-1H-indol-3-yl)pyrrolidine-2,5-dione]", "values": [{"measurement": "IC50", "setting": "[1]", "value": "> 50", "unit": "µM"}, {"measurement": "blood-brain barrier crossing", "value": "able to cross the blood-brain barrier"}]}]}
